Laboratory results: US20130165417A1, “METHODS AND COMPOSITIONS FOR TREATING ACE2-RELATED DISORDERS” (UNIVERSITY OF FLORIDA RESEARCH FOUNDATION, priority 2010, published 2013)
“Also recorded” adds a separate entry of the source.

Assays:
[1] = target: T1, ACE2 (Homo sapiens, UniProt Q9BYF1); settings: Donoghue et al. 2000, Tipnis et al. 2000; cited from earlier work
Target sequence in this assay (Q9BYF1 18-805): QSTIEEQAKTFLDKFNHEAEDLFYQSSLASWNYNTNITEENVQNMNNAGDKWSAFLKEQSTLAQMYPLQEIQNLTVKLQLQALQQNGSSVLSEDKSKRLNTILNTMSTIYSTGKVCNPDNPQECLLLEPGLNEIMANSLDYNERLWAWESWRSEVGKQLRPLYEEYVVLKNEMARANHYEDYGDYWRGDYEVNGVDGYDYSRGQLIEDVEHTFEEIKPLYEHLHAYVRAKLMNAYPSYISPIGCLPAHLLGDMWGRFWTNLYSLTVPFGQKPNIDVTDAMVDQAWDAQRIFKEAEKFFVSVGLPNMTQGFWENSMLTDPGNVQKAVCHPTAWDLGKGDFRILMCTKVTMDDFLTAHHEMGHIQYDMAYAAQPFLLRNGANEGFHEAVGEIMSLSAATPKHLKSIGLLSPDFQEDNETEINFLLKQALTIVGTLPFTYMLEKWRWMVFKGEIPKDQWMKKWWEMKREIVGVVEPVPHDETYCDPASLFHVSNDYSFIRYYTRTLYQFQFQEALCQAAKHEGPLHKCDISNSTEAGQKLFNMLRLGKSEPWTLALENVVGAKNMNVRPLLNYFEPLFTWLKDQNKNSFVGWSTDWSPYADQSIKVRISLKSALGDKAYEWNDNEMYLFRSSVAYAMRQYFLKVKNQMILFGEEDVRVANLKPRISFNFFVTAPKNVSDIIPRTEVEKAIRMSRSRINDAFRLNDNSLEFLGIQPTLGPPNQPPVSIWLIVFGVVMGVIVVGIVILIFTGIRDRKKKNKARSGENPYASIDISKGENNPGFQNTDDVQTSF

[2] = test system: monocrotaline (MCT) treated rats; test: Monocrotaline (MCT) treated rats, pulmonary hypertension; format: in vivo, rat
[3] = target: T2, Recombinant ACE (Homo sapiens, UniProt P12821); test: ACE activity assay with fluorogenic peptide substrate; format: biochemical; settings: FIG. 2
T2 construct: purchased R&D Systems, Minneapolis, Minn; 929-ZN-10
Procedure: (§1) Recombinant ACE and ACE2 are obtained in purified form from R&D Systems, Minneapolis, Minn. (catalog ID: 929-ZN-10 and 933-ZN-10, respectively). Substrates for ACE (fluorogenic peptide V, Mca-[…](Dnp)-OH, catalog ID: ES005), and for ACE2 (fluorogenic peptide VI, Mca-YVADAPK(Dnp)-OH, catalog ID: ES007) are obtained from R&D systems. Dry compounds are resuspended in 100% DMSO to prepare 100 mM stock solutions, according to the amount of compound and its molecular weight. Gentle heating to 60-80° C. is carried out to assist their solubilization. Compounds are further diluted to 50 mM stocks if clearly difficult to dissolve.
(§2) Activity of ACE and ACE2 are measured with a Spectra Max Gemini EM Florescence Reader (Molecular Devices). The enzyme removes the c-terminal dinitrophenyl moiety that quenches the inherent fluorescence of its 7-methoxycoumain group, resulting in an increase in fluorescence in the presence of enzyme activity. Fluorescence is measured with excitation and emission spectra of 328 nm and 392 nm, respectively. Reaction mixtures are prepared in 100 μl volumes and different concentrations of compound are tested against 10 μM substrate. 10 nM enzyme in 100 mM NaCl, 75 mM Tris, 0.5 μM ZnCl2, at pH 7.4. Samples are read every 15-20 seconds for at least 30 minutes immediately after the addition of fluorogenic peptide substrate at 37° C. […]

[4] = test system: Wistar Kyoto rats (WKYs); test: Direct blood pressure and heart rate measurement after IV bolus, WKY rats; format: in vivo, rat
Procedure: (§3) Male Wistar-Kyoto (WKY) rats and spontaneously hypertensive rats (SHRs) were purchased from Charles River Laboratories (Wilmington, Mass., USA). All procedures were performed in conformity with approved Institutional Animal Care and Use Committee protocols and University of Florida regulations.
(§4) Cannulation of the animals (WKY rats and SHRs) was performed 24 h prior to the start of the drug administration and direct blood pressure (BP) measurement. Animals were anesthetized with a mixture of ketamine, xylazine, and acepromazine (30, 6, and 1 mg/kg, respectively). The two types of the cannulae used were: 1) a polyethylene cannula (PE-50, Clay Adams) introduced into the carotid artery for direct BP measurements and 2) a silicone elastomer cannula (Helix Medical) introduced into the descending jugular vein for acute intravenous (IV) bolus injections of the drug. Both cannulae were filled with heparin saline (40 U/mL, Sigma), and sealed with stylets. The IV drug administration of diminazene aceturate (DIZE) (LKT laboratories, St. Paul, Minn., USA) and the dose-response curves in WKYs and SHRs were obtained in awake, freely moving animals after a 24 h recovery period. Doses of diminazene aceturate (DIZE) (0.04, […], 0.6, 1.25, 2.5, 5 and 10 mg/kg) were administered as an IV bolus via the jugular cannula, and BP data recording was interfaced by a PowerLab (ADlnstruments) signal transduction unit. The data analysis was done using the Chart program (PowerLab system).

[5] = test system: models of pulmonary hypertension; test: Two models of pulmonary hypertension; format: in vivo
[6] = test system: Endothelial progenitor cells harvested from pulmonary hypertensive patients; test: Function of endothelial progenitor cells from pulmonary hypertensive patients; format: cell-based, human
From the text: Another important finding is the effect of DIZE on stem cell function. Endothelial progenitor cells harvested from pulmonary hypertensive patients are dysfunctional and have decreased ability to repair vascular damage induced by the disease.

[7] = test system: spontaneously hypertensive rats (SHRs); test: Direct blood pressure and heart rate measurement after IV bolus, SHRs; format: in vivo, rat
Procedure: as §3, §4

[8] = target: T1, ACE2; test: ACE2 activity assay with fluorogenic peptide substrate; format: biochemical; parameters: purchased R&D Systems, Minneapolis, Minn; 933-ZN-10
Procedure: as §1, §2
Target sequence in this assay (Q9BYF1 18-740 limits assumed): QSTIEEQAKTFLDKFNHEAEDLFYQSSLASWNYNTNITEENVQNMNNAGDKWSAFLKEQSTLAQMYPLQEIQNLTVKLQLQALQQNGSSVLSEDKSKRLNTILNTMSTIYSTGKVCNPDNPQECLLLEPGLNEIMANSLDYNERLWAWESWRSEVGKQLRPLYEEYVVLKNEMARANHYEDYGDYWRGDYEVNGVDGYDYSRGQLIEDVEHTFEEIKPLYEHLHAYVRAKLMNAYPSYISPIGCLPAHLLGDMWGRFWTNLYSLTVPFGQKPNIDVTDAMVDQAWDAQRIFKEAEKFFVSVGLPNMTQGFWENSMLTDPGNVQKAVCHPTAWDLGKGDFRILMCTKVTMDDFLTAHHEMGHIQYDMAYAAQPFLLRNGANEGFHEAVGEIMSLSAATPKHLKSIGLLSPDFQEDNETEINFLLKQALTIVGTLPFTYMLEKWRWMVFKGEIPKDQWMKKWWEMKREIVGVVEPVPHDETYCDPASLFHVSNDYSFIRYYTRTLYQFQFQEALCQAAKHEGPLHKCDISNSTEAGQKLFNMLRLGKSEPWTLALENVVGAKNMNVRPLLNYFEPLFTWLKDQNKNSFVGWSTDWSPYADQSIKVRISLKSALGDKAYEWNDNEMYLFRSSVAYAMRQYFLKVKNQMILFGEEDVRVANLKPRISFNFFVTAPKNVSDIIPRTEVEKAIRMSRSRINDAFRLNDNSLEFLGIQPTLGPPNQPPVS

[9] = test system: myocardial infarction; test: Myocardial infarction model of cardiac disease; format: in vivo

T2 sequence (P12821 30-1306): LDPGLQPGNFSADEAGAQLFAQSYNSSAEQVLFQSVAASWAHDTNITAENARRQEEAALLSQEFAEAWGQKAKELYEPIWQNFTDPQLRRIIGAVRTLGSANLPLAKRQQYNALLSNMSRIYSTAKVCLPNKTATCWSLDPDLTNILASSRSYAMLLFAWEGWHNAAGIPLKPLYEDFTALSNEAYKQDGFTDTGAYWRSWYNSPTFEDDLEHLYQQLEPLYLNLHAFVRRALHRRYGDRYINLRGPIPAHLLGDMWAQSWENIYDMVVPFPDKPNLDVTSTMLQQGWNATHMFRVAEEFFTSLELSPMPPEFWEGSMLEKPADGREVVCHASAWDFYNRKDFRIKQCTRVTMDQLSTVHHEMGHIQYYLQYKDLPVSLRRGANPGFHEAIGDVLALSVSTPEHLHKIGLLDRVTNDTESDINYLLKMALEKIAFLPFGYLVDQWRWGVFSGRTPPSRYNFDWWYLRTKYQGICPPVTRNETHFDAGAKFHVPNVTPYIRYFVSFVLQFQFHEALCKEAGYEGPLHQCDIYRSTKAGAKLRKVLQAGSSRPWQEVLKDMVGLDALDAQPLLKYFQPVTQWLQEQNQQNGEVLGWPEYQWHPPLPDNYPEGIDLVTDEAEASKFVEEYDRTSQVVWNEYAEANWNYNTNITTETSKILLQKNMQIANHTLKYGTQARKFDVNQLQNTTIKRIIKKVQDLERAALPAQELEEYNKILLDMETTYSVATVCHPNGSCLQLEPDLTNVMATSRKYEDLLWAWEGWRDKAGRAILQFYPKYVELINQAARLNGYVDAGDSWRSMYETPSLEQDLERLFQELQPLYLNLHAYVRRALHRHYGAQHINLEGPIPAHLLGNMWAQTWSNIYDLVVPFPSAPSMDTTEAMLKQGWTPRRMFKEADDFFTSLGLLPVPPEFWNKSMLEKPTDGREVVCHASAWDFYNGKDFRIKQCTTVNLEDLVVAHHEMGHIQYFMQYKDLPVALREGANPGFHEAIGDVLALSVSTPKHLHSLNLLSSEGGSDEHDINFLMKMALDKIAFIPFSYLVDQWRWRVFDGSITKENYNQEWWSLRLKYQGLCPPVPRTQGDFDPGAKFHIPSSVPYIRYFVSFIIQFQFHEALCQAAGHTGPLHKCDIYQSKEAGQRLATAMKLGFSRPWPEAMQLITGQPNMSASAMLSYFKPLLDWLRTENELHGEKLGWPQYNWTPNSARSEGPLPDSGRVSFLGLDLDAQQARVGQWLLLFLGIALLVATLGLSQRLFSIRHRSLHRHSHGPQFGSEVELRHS

C[C@H](CS)C(=O)N1CCC[C@H]1C(=O)O [captopril]
effect on activity of ACE2 [1]: do not significantly affect

N=C(N)c1ccc(N=NNc2ccc(C(=N)N)cc2)cc1 [DIZE, 4,4′-(1-Triazene-1,3-diyl)bis(benzenecarboximidamide)]
MCT-induced right ventricular fibrosis ([2]; FIG. 6): causes reversal
Right Ventricular Systolic Pressure (RVSP) and Right Ventricular Hypertrophy (RVH), prevention ([2]; MCT treated rats, FIG. 4): prevents increase
RVSP and RVH, reversal ([2]; MCT-treated rats, FIG. 5): reverses increases
effect on ACE activity [3]: increases ACE2 but not ACE activity
reduction of mean arterial pressure (MAP) ([4]; WKY rats, 5 mg/kg intravenous, n=6): 50±9 mmHg
effect on heart rate ([4]; WKY, acute IV bolus): does not affect the heart rate
change in mean arterial pressure (MAP) ([4]; WKYs, intravenous administration, result in words): transient and dose dependent decrease
progression of pathophysiology ([5]; administered after the development of pulmonary hypertension): arrested
development of the disorder ([5]; pretreatment): completely prevents the development of these disorders
fibrosis ([5]; pretreatment): virtually absent
pulmonary pressure ([5]; pretreatment): nearly normalized
endothelial progenitor cell dysfunction (ability to repair vascular damage) [6]: significantly improves this dysfunction
effect on heart rate ([7]; SHR, acute IV bolus): does not affect the heart rate
reduction of mean arterial pressure (MAP) ([7]; SHRs, 5 mg/kg intravenous, n=6): 85±11 mmHg
change in mean arterial pressure (MAP) ([7]; SHRs, intravenous administration, result in words): transient and dose dependent decrease; also recorded: greater reduction in blood pressure in SHRs compared to WKY control rats
maximal increase in ACE2 activity (Vmax) ([8]; observed with 50 μM): 2.3 fold
effect on ACE2 activity ([8]; result in words): dose-dependent increase in ACE2 activity; also recorded: enhances specifically the ACE2 enzyme activity
MI-induced cardiac dysfunctions ([9]; FIG. 3): attenuates
cardiac function ([9]; pretreatment): significantly improves cardiac function
development of the disorder ([9]; pretreatment): completely prevents the development of these disorders
infarct area ([9]; pretreatment): reduces infarct area
